Assay results as given in US3966956A, “[1-(P-Chlorobenzoyl)-5-methoxy-2-methyl-3-indole]acetoxyacetic acid and salts in treating inflammation” (Troponwerke Dinklage & Company, priority 1972, dated 1976).
Structures can show the parent of a compound that is named as a salt. Where two headings read alike, the source gives them in different places.

Key:
[1] = stability of the dissolved sodium salt in water or water/alcohol; format: physicochemical; settings: aqueous or aqueous-alcoholic solution
From the text: the free acid I can be converted into its salts in a manner known per se. Pharmacologically acceptable and conventional inorganic and organic bases can be considered for this purpose.

protein = assay: Mizushima's Test (inhibition of protein hazing); format: biochemical
Description: It was also possible to confirm the superiority of I over II in Mizushima's Test in which potent antiphlogistics are known to inhibit protein hazing directly proportional to their antiphlogistic potency (cf. Arch. int. Pharmacodyn. 149 (1964), 1, and 157 (1965), 115).
A DE50 of 0.07 mg/ml was measured for the sodium salt of I, in other words the level of protein hazing was inhibited by 50% at this concentration.

kaolin oedema of the paw = kaolin oedema of the paw of a rat; format: in vivo; settings: for ED50: read-out: ED50 (dose which reduces the oedemas by half as compared with a control group)
[2] = test system: formalin oedema of the paw; assay: formalin oedema on the paw of a rat; format: in vivo; settings: once orally
From the text: (§1) Furthermore, with two other forms of inflammation, the inflammations produced with formalin and carrageenin on the paw of a rat, the oedema-inhibiting efficiency of I is stronger than that of II. […] These differences are also statistically significant.

[3] = test system: carrageenin oedema of the paw; assay: carrageenin oedema on the paw of a rat; format: in vivo; settings: once orally
From the text: as §1

adjuvant arthritis = assay: arthritis produced in the rat with Freud's adjuvants; format: in vivo
[4] = test system: sulphydryl groups present in the serum; assay: Gerber method: reaction velocity of serum sulphydryl groups with 2,2'-dinitro-5,5-dithiobenzoic acid; format: biochemical; settings: concentration range 0.5 to 3 mMol/liter
From the text: Another characteristic test for determining the activity of non-steroid antiphlogistic substances is the method described by D. A. Gerber, N. Cohen and R. Giustra (cf. Biochem. Pharmacol. 16 (1967) 115) of influencing the physical-chemical behaviour of native protein, for example influencing the reaction velocity of the sulphydryl groups present in the serum with 2,2'-dinitro-5,5-dithiobenzoic acid. […] Since, according to Gerber et al, (loc. cit.), the percentage increase in reaction velocity is directly proportional to antiphlogistic activity, a greater activity of I by comparison with II can also be derived from this […] test; this applies above all in the lower concentration ranges (105:39) which come closest to the therapeutically attainable concentrations. In this case, too, the intact compound I can be shown to be the only active component.

human albumin = assay: protein binding by the ultracentrifuging method; format: in vitro ADME; settings: same protein and equivalent substance concentration
From the text: Another interesting criterion for the activity of a pharmacon is protein binding. It is known that, in the serum, pharmacons are partly bound to protein and it is only those fractions that are not bound to protein which are responsible for the onset of biological activity. […] Where human albumin is used, the differences amount to about 60%, in other words, for the same protein concentration and an equivalent substance concentration, the values for non-protein-bound I are about 60% higher than those of II. The values found for II are consistent with those described in the literature (cf. E. Hvidberg et al, Eur. J. clin. Pharmacol. 4 (1972), 119). Accordingly, I can be expected to show greater activity in this test as well, i.e. a smaller dosage of I is required which can again be of advantage in toxicological terms.

[5] = resorption after oral administration in dogs; format: in vivo; settings: dog
[6] = acute oral toxicity (LD50), mouse; settings: in vivo, single oral administration, I given as sodium salt
Description: (§2) The toxicity data (LD50) of both compounds are as follows:
(§3) As regards I, after single oral administration of 55.5 mg/kg to the mouse and 38.9 mg/kg to the rat (using the sodium salt of I). The corresponding data for II are 18.4 and 24.5 mg/kg, respectively.

[7] = acute oral toxicity (LD50), rat; settings: in vivo, single oral administration, I given as sodium salt
Description: as §2, §3

[8] = cited from earlier work
[9] = patients, relatively slight side effects and serious cases; cited from earlier work

COc1ccc2c(c1)c(CC(=O)O)c(C)n2C(=O)c1ccc(Cl)cc1 [sodium salt of the known compound II, reference compound]
stability/clarity of solution of the sodium salt [1]: almost immediately, a clouding of the solution and the compound II begins to decompose

COc1ccc2c(c1)c(CC(=O)OCC(=O)O)c(C)n2C(=O)c1ccc(Cl)cc1 [sodium salt of I]
DE50 (concentration inhibiting the level of protein hazing by 50%) (protein): 0.07 mg/mL | stability/clarity of solution of the sodium salt [1]: the solution remains clear for a considerable period of time

COc1ccc2c(c1)c(CC(=O)OCC(=O)O)c(C)n2C(=O)c1ccc(Cl)cc1 [I, [1-(p-chlorobenzoyl)-5-methoxy-2-methyl-3-indole]-acetoxyacetic acid]
ED50 (kaolin oedema of the paw; rat, single oral application, range of confidence (P = 5%): I 0.37 to 0.67, II 0.83 to 1.40): 0.5 mg/kg | relative effectiveness I versus II on kaolin oedema (kaolin oedema of the paw; rat, single oral, from ED50): about twice as effective as II | inhibition of formalin oedema ([2]; 1.5 mg/kg): 25% | inhibition of carrageenin oedema ([3]; 1.5 mg/kg): 62% | antiphlogistic effect on adjuvant arthritis compared with II (adjuvant arthritis; oral, daily dose 3.5 mg/kg of I versus equimolar 3 mg/kg of II): decidedly stronger than that of the equimolar daily dose of 3 mg/kg of II | inflammation-inhibiting efficiency on adjuvant arthritis (adjuvant arthritis; primary and generalised inflammation symptoms): strong inflammation-inhibiting efficiency | increase in reaction velocity of serum sulphydryl groups [4]: 105-335% | increase of non-protein-bound fraction over II (human albumin): about 60% | detection as an unchanged molecule in the organism [5]: can be detected as an unchanged molecule for several hours in the organism | resorption after oral administration [5]: well resorbed after oral administration | LD50 [6]: 55.5 mg/kg | LD50 [7]: 38.9 mg/kg

COc1ccc2c(c1)c(CC(=O)O)c(C)n2C(=O)c1ccc(Cl)cc1 [II, 1-(p-chlorobenzoyl)-5-methoxy-2-methyl-3-indole acetic acid, reference compound]
ED50 (kaolin oedema of the paw; Rattus norvegicus, po): 1.04 mg/kg | inhibition of formalin oedema ([2]; 1.6 mg/kg): 13.8% | inhibition of carrageenin oedema ([3]; 1.6 mg/kg): 42% | DE50 (concentration inhibiting the level of protein hazing by 50%) (protein): 0.13 mg/mL | increase in reaction velocity of serum sulphydryl groups [4]: 39-272% | LD50 [6]: 18.4 mg/kg | LD50 [7]: 24.5 mg/kg | patients in whom therapy had to be discontinued because of the side effects [8]: ~10% | side effects [9]: neurosensitive disturbances such as headaches, vertigos and concentration difficulties, digestive complaints with loss of appetite, sickness, stomach pains, diarrhoea and, finally, some serious cases of intestinal bleeding, stomach ulcers and, occasionally, neurological deficiency symptoms
